These results are taken from patent US8008296B2, “Histamine H3 receptor agents, preparation and therapeutic uses” (Eli Lilly and Company, priority 2005, dated 2011).

In this assay the target is T1, human histamine 3 receptor (H3R) (Homo sapiens, UniProt Q9Y5N1).
T1 construct: expressed in transfected cells; membranes
Briefly: Histamine H3 Receptor Binding Assay (competitive inhibition SPA, [3H] α-methylhistamine, HEK293 H3R8 membranes). The source says: The compounds of the present invention can readily be evaluated by using a competitive inhibition Scintillation Proximity Assay (SPA) based on a H3R binding assay using [3H] a methylhistamine as ligand. Stable cell lines, including but not limited to HEK can be transfected with cDNA coding for H3R to prepare membranes used for the binding assay. The technique is illustrated below (Preparation of Histamine Receptor Subtype Membranes) for the histamine receptor subtypes.
cDNA for the human histamine 3 receptor is cloned and expressed as described in (A. Preparation H1R membranes), above. Transfected cells are selected using G418 ([…]), grown, and tested for histamine binding by the SPA described above. For total binding, cells are assayed in a SPA reaction described above containing 50 mM Tris-HCL (assay buffer), pH 7.6, 1 mg wheat germ agglutinin SPA beads (Amersham Pharmacia Biotech, #RPNQ0001), and 1 nM (3H)-n-alpha-methylhistamine (NEN, NET1027) (total volume per well=200 μl). Thioperimide is added to determine non-specific binding. Several clones are selected as positive for binding, and a single clone (H3R8) is used to prepare membranes for binding studies described above. Five micrograms of protein is used per well in the SPA receptor-binding assay. […]

T1 sequence (Q9Y5N1 whole entry): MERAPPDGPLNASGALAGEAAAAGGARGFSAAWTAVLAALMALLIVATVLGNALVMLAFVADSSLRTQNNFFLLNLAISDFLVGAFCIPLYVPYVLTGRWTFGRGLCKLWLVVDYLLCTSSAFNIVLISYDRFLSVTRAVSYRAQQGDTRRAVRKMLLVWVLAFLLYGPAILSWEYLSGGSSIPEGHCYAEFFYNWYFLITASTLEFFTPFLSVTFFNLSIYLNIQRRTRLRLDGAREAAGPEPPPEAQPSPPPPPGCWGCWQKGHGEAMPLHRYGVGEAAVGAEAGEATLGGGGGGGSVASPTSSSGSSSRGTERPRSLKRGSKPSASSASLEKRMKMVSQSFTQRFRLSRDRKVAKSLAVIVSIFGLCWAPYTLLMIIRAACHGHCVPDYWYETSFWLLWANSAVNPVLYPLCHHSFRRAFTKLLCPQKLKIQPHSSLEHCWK

`O=C(c1ccc(Sc2ccncn2)cc1)N1CCCC1CN1CCCC1` (centres unmarked) showed a Ki of 11.7 nM. This counts as double-digit nanomolar.

`CCCCNc1ccc(C(=O)N2CCCC2CN2CCCC2)cc1` (centres unmarked) gave a Ki of 21.6 nM.

By Ki is commonly meant a measure of affinity in units of concentration, obtained from inhibition or displacement.
